Measured values published in US20160060288A1, “Ester derivatives of 7-alpha-[9-(4,4,5,5,5-pentafluoropentylsulfinyl)nonyl)-estra-1,3,5(10)-triene-3,17beta-diol having anticancer activity and preparation method thereof” (XI'ANLIBANG PHARMACEUTICAL TECHNOLOGY CO., LTD., priority 2013, published 2016).
Converted amounts (≈) assume the structure as drawn. One block for each compound: values may come before it.

Legend:
physchem = details: thermodynamic from solid
Source text: (§1) Fulvestrant and ester derivatives of fulvestrant were accurately weighed to an appropriate amount respectively. Their solubilities (in mg/mL) in different oils and solvents were compared according to General Notice in Section 2 of Chinese Pharmacopoeia (2010).

[1] = Body weight of MCF-7 xenografted nude mice; details: oiling agent, 100 mg/kg s.c. once, 28 days after administration, X ± SD
Protocol: Experimental animals and grouping thereof, source, germline and strain: BALB/c female nude mice, provided by Laboratory Animal Research Center of Academy of Military Medical Sciences of China (Laboratory animal production license: SCXK (Military) 2007-004), day-old: 35-40 days; body weight: 18-24 g.
Establishment of model and tumor measuring method: human breast cancer MCF-7 cell lines in logarithmic growth phase were prepared into a cell suspension of 5×10^8/mL under sterile condition, with 0.1 mL of which being inoculated to nude mice at their right armpits subcutaneously. Xenografted tumors of nude mice were measured for diameter with vernier caliper, and animals were randomly grouped when the tumors grew to 100-300 mm^3. The administration volume to each of the mice was 0.2 mL/20 g by subcutaneous injection at head and neck region. 28 days after administration, the mice were sacrificed and the tumors were stripped by surgery and weighed.

[2] = tested on: human breast cancer MCF-7; assay: Growth inhibition of human breast cancer MCF-7 xenografted in nude mice; format: in vivo, BALB/c female nude mice; details: oiling agent, 100 mg/kg s.c. once, 28 days after administration; for Tumor weight: X ± SD; for Tumor inhibition rate: from tumor weight vs control
Source text: Test drugs: fulvestrant, Compounds II and X are dispersed in oil and sterilized to be prepared as oiling agents respectively.

[3] = Solubility experiments of fulvestrant and ester derivatives in different oils and solvents; details: thermodynamic from solid
Source text: as §1

[4] = cited from earlier work
[5] = oil or lipid, Solubility in soybean oil
[6] = organic solvent or mixture, Solubility in propylene glycol

SMILES: CCCCCCCCCCC(=O)OC1CCC2C3C(CCCCCCCCC[S+]([O-])CCCC(F)(F)C(F)(F)F)Cc4cc(O)ccc4C3CCC12C (centres unmarked) [Compound I]
solubility (physchem; [5]): 255 mg/mL (≈ 329 mM) | solubility (physchem; [6]): 2.9 mg/mL (≈ 3.74 mM)

SMILES: CCCCCCCC/C=C/C(=O)OC1CCC2C3C(CCCCCCCCC[S+]([O-])CCCC(F)(F)C(F)(F)F)Cc4cc(O)ccc4C3CCC12C (centres unmarked) [Compound V]
solubility (physchem; [5]): 122 mg/mL (≈ 158 mM) | solubility (physchem; [6]): 12.2 mg/mL (≈ 15.8 mM)

solubility ([3]; PEG 400, organic solvent or mixture, Solubility in PEG 400, PEG 400): 6.9 mg/mL (≈ 11.4 mM) | solubility ([3]; propylene glycol, organic solvent or mixture, Solubility in propylene glycol): 10.2 mg/mL (≈ 16.8 mM) | solubility ([3]; soybean oil, oil or lipid, Solubility in soybean oil): 5 mg/mL (≈ 8.24 mM)
SMILES: CC12CCC3c4ccc(O)cc4CC(CCCCCCCCC[S+]([O-])CCCC(F)(F)C(F)(F)F)C3C1CCC2O (stereo not drawn) [Fulvestrant, 7-α-[9-(4,4,5,5,5-pentafluoropentylsulfinyl)nonyl]-estra-1,3,5(10)-triene-3,17β-diol]
Final body weight [1]: 15.800 ± 1.166 g | Tumor weight [2]: 0.392 ± 0.443 g | Tumor inhibition rate [2]: 66.78% | Solubility in Migloyl 810 ([4]; Migloyl 810, 25° C.): 3.06 mg/mL (≈ 5.04 mM) | Solubility in Migloyl 812 ([4]; Migloyl 812, 25° C.): 2.72 mg/mL (≈ 4.48 mM) | Solubility in Span 85 ([4]; Span 85, 25° C.): 3.79 mg/mL (≈ 6.25 mM) | Solubility in benzyl alcohol ([4]; benzyl alcohol, 25° C.): > 200 mg/mL | Solubility in benzyl benzoate ([4]; benzyl benzoate, 25° C.): 6.15 mg/mL (≈ 10.1 mM) | Solubility in castor oil ([4]; castor oil, 25° C.): 20 mg/mL (≈ 33 mM) | Solubility in castor oil (reported value) ([4]; castor oil, * denotes reported value): 20* mg/mL | Solubility in ethanol ([4]; ethanol, 25° C.): > 200 mg/mL | Solubility in ethyl oleate ([4]; ethyl oleate, 25° C.): 1.25 mg/mL (≈ 2.06 mM) | Solubility in isopropyl myristate ([4]; isopropyl myristate, 25° C.): 0.80 mg/mL (≈ 1.32 mM) | Solubility in peanut oil ([4]; peanut oil, 25° C.): 0.45 mg/mL (≈ 0.742 mM) | Solubility in sesame oil ([4]; sesame oil, 25° C.): 0.58 mg/mL (≈ 0.956 mM) | Solubility in water ([4]; water, 25° C.): 0.001 mg/mL (≈ 0.00165 mM) | Water solubility ([4]; water): about 10 ng/mL

SMILES: CCCCCCCC/C=C/C(=O)OC1CCC2C3C(CCCCCCCCC[S+]([O-])CCCC(F)(F)C(F)(F)F)Cc4cc(OC(=O)CCC)ccc4C3CCC12C (centres unmarked) [Compound X]
Tumor weight [2]: 0.402 ± 0.711 g | Tumor inhibition rate [2]: 65.93%

SMILES: CCCCCCCCCCCCCCCC(=O)OC1CCC2C3C(CCCCCCCCC[S+]([O-])CCCC(F)(F)C(F)(F)F)Cc4cc(O)ccc4C3CCC12C (centres unmarked) [Compound II]
Tumor weight [2]: 0.426 ± 0.306 g | Tumor inhibition rate [2]: 64.90% | solubility (physchem; oil or lipid, Solubility in castor oil): > 100 mg/mL | solubility (physchem; oil or lipid, Solubility in medium-chain oil): > 10 mg/mL | solubility (physchem; [5]): > 100 mg/mL | solubility (physchem; organic solvent or mixture, Solubility in PEG 400): 2.9 mg/mL (≈ 3.43 mM) | solubility (physchem; [6]): 10.2 mg/mL (≈ 12.1 mM)

SMILES: CC(CCC(C(=O)OC1CCC2C3C(CCCCCCCCC[S+]([O-])CCCC(F)(F)C(F)(F)F)Cc4cc(O)ccc4C3CCC12C)C(C)CC(C)(C)C)CC(C)(C)C (centres unmarked) [Compound IV]
solubility (physchem; [5]): 28 mg/mL (≈ 32.1 mM) | solubility (physchem; [6]): 7.1 mg/mL (≈ 8.13 mM)
